Residues, ends and D or L forms follow the SMILES beside them. *: point of attachment. Cbz = O=C(OCc1ccccc1)*
How the values were obtained:
PBMC from relapse = experiment: Incubation of PBMCs with the proteasome inhibitor MG132, c-maf protein in protein extracts; type: cell-based, human; conditions: co culture of PBMC from MCNS relapse with MG132, 10 μM, overnight
Protocol: 5) Quantification of IL4 mRNA by quantitative RT-PCR. Quantitative PCR was performed using the Light Cycler (Roche Molecular Biochemical). The samples (2 μl of the RT reaction, corresponding to 20 ng of total RNA) were amplified in a 20 μl reaction mixture containing […] each primer, and 1×mix LightCycler-DNA master SYBR Green buffer (Roche Molecular Biochemical). Carry-over was prevented by using dUTP instead of dTTP, and heat-labile Uracil DNA glyco-sylase (UDG). A standard curve was made using dilution of the RNA prepared from pUc9-IL4 plasmid. The PCR reaction was started by a denaturation at 95° C. for 2 min followed by 40 three step cycles (95° C.: 1 sec, 60° C.: 10 sec, and 72° C.: 24 sec). The relative value for each sample was calculated using the LightCycler analysis software. 6) Electromobility shift assays (EMSA), immunoprecipitations and Western blottings: Cytosolic and nuclear protein preparations as well as EMSA were performed as previously described (34). […] The subunit composition of DNA-protein complexes containing c-Maf was determined by preincubation of nuclear extracts with 1 μg of polyclonal antibodies raised against c-Maf (sc-7866), c-Fos (sc-7202), and c-Jun (sc-1694), (Santa Cruz, Biotechnology), before the addition of the probe. […] Band shifts were quantified using the ImageQuant V1.11 analysis software. […]

[1] = test system: patient with Minimal Change Nephrotic Syndrome; experiment: Prednisone treatment of the patient selected for the subtractive library (onset of nephrotic syndrome, MCNS); type: in vivo, human; conditions: one patient, prednisone 1 mg/kg/day for four weeks, then tapered

SMILES	effect on L/c-maf protein (long form) (PBMC from relapse)	effect on S/c-maf protein (short form) (PBMC from relapse)	remission of nephrotic syndrome [1]
CC(C)C[C@@H](C=O)NC(=O)[C@H](CC(C)C)NC(=O)[C@H](CC(C)C)NC(=O)OCc1ccccc1 [MG132, carbobenzoxyl-leucinyl-leucinyl-leucinal-H] (Cbz-Leu-Leu-Leu-aldehyde)	no evident change	induces a sequestration of S/c-maf protein	–
C[C@]12C=CC(=O)C=C1CC[C@@H]1[C@@H]2C(=O)C[C@@]2(C)[C@H]1CC[C@]2(O)C(=O)CO [prednisone]	–	–	Complete remission was obtained within ten days

From patent US20030138816A1, “Methods and kits for diagnosing the occurrence or the phase of minimal change nephrotic syndrome (MCNS) in a human” (INSTITUT NATIONAL DE LA SANTE ET DE LA RECHERCHE MEDICALE, priority 2001, published 2003)
